In article PMC9014845 (Clinical cancer research : an official journal of the …, 2019):

Tested on: patients with advanced solid tumors harboring FGFR1–3 gene alterations
Test: Phase I dose-escalation: safety/tolerability
Assay type: in vivo, human

Debio 1347
TEAE: Back pain (150 mg (n=3), all grades): 1 (33) Number (%) of patients
TEAE: Blurred vision (150 mg (n=3), all grades): 0 Number (%) of patients
TEAE: Constipation (150 mg (n=3), all grades): 1 (33) Number (%) of patients
TEAE: Creatinine increased (in blood) (150 mg (n=3), all grades): 0 Number (%) of patients
TEAE: Decreased appetite (150 mg (n=3), all grades): 1 (33) Number (%) of patients
TEAE: Diarrhea (150 mg (n=3), all grades): 1 (33) Number (%) of patients
TEAE: Dry eye (150 mg (n=3), all grades): 1 (33) Number (%) of patients
TEAE: Dry mouth (150 mg (n=3), all grades): 1 (33) Number (%) of patients
TEAE: Dry skin (150 mg (n=3), all grades): 1 (33) Number (%) of patients
TEAE: Dysgeusia (150 mg (n=3), all grades): 2 (67) Number (%) of patients
TEAE: Dyspnea (150 mg (n=3), all grades): 1 (33) Number (%) of patients
TEAE: Edema peripheral (150 mg (n=3), all grades): 1 (33) Number (%) of patients
TEAE: Fatigue (150 mg (n=3), all grades): 0 Number (%) of patients
TEAE: Hyperphosphatemia (150 mg (n=3), all grades): 3 (100) Number (%) of patients
TEAE: Hypertension (150 mg (n=3), all grades): 0 Number (%) of patients
TEAE: Hypokalemia (150 mg (n=3), all grades): 0 Number (%) of patients
TEAE: Hypomagnesemia (150 mg (n=3), all grades): 0 Number (%) of patients
TEAE: Mucosal inflammation (150 mg (n=3), all grades): 1 (33) Number (%) of patients
TEAE: Myalgia (150 mg (n=3), all grades): 0 Number (%) of patients
TEAE: Nail changes (150 mg (n=3), all grades): 3 (100) Number (%) of patients
TEAE: Nausea (150 mg (n=3), all grades): 2 (67) Number (%) of patients
TEAE: Stomatitis (150 mg (n=3), all grades): 1 (33) Number (%) of patients
TEAE: Vomiting (150 mg (n=3), all grades): 1 (33) Number (%) of patients
Patients requiring dose reduction (60 and 80 mg): 20%
Any TEAE (all doses (n=58), all grades): 58 (100%) Number (%) of patients
Any TEAE leading to discontinuation (all doses (n=58), all grades): 7 (12.1) Number (%) of patients
Any TEAE leading to dose reduction (all doses (n=58), all grades): 13 (22.4) Number (%) of patients
Any TEAE leading to treatment interruption (all doses (n=58), all grades): 26 (44.8) Number (%) of patients
Serious TEAE (all doses (n=58), all grades): 20 (34.5) Number (%) of patients
TEAE: ALT increased (all doses (n=58), all grades): 6 (10) Number (%) of patients
TEAE: AST increased (all doses (n=58), all grades): 6 (10) Number (%) of patients
TEAE: Abdominal pain (all doses (n=58), all grades): 12 (21) Number (%) of patients
TEAE: Alopecia (all doses (n=58), all grades): 11 (19) Number (%) of patients
TEAE: Anemia (all doses (n=58), all grades): 12 (21) Number (%) of patients
TEAE: Back pain (all doses (n=58), all grades): 9 (16) Number (%) of patients
TEAE: Blurred vision (all doses (n=58), all grades): 6 (10) Number (%) of patients
TEAE: Constipation (all doses (n=58), all grades): 19 (33) Number (%) of patients
TEAE: Creatinine increased (in blood) (all doses (n=58), all grades): 8 (14) Number (%) of patients
TEAE: Decreased appetite (all doses (n=58), all grades): 18 (31) Number (%) of patients
TEAE: Diarrhea (all doses (n=58), all grades): 24 (41) Number (%) of patients
TEAE: Dry eye (all doses (n=58), all grades): 8 (14) Number (%) of patients
TEAE: Dry mouth (all doses (n=58), all grades): 15 (26) Number (%) of patients
TEAE: Dry skin (all doses (n=58), all grades): 10 (17) Number (%) of patients
TEAE: Dysgeusia (all doses (n=58), all grades): 10 (17) Number (%) of patients
TEAE: Dyspnea (all doses (n=58), all grades): 12 (21) Number (%) of patients
TEAE: Edema peripheral (all doses (n=58), all grades): 8 (14) Number (%) of patients
TEAE: Fatigue (all doses (n=58), all grades): 22 (38) Number (%) of patients
TEAE: Hyperphosphatemia (all doses (n=58), all grades): 44 (76) Number (%) of patients
TEAE: Hypertension (all doses (n=58), all grades): 7 (12) Number (%) of patients
TEAE: Hypokalemia (all doses (n=58), all grades): 8 (14) Number (%) of patients
TEAE: Hypomagnesemia (all doses (n=58), all grades): 7 (12) Number (%) of patients
TEAE: Mucosal inflammation (all doses (n=58), all grades): 8 (14) Number (%) of patients
TEAE: Myalgia (all doses (n=58), all grades): 12 (21) Number (%) of patients
TEAE: Nail changes (all doses (n=58), all grades): 17 (29) Number (%) of patients
TEAE: Nausea (all doses (n=58), all grades): 23 (40) Number (%) of patients
TEAE: Stomatitis (all doses (n=58), all grades): 12 (21) Number (%) of patients
TEAE: Vomiting (all doses (n=58), all grades): 11 (19) Number (%) of patients
Any TEAE (all doses (n=58), grade ≥3): 37 (64%) Number (%) of patients
TEAE: ALT increased (all doses (n=58), grade ≥3): 2 (3) Number (%) of patients
TEAE: AST increased (all doses (n=58), grade ≥3): 1 (2) Number (%) of patients
TEAE: Abdominal pain (all doses (n=58), grade ≥3): 1 (2) Number (%) of patients
TEAE: Alopecia (all doses (n=58), grade ≥3): 0 Number (%) of patients
TEAE: Anemia (all doses (n=58), grade ≥3): 7 (12) Number (%) of patients
TEAE: Back pain (all doses (n=58), grade ≥3): 1 (2) Number (%) of patients
TEAE: Blurred vision (all doses (n=58), grade ≥3): 0 Number (%) of patients
TEAE: Constipation (all doses (n=58), grade ≥3): 1 (2) Number (%) of patients
TEAE: Creatinine increased (in blood) (all doses (n=58), grade ≥3): 0 Number (%) of patients
TEAE: Decreased appetite (all doses (n=58), grade ≥3): 1 (2) Number (%) of patients
TEAE: Diarrhea (all doses (n=58), grade ≥3): 2 (3) Number (%) of patients
TEAE: Dry eye (all doses (n=58), grade ≥3): 0 Number (%) of patients
TEAE: Dry mouth (all doses (n=58), grade ≥3): 0 Number (%) of patients
TEAE: Dry skin (all doses (n=58), grade ≥3): 0 Number (%) of patients
TEAE: Dysgeusia (all doses (n=58), grade ≥3): 0 Number (%) of patients
TEAE: Dyspnea (all doses (n=58), grade ≥3): 3 (5) Number (%) of patients
TEAE: Edema peripheral (all doses (n=58), grade ≥3): 0 Number (%) of patients
TEAE: Fatigue (all doses (n=58), grade ≥3): 0 Number (%) of patients
TEAE: Hyperphosphatemia (all doses (n=58), grade ≥3): 12 (21) Number (%) of patients
TEAE: Hypertension (all doses (n=58), grade ≥3): 0 Number (%) of patients
TEAE: Hypokalemia (all doses (n=58), grade ≥3): 1 (2) Number (%) of patients
TEAE: Hypomagnesemia (all doses (n=58), grade ≥3): 0 Number (%) of patients
TEAE: Mucosal inflammation (all doses (n=58), grade ≥3): 1 (2) Number (%) of patients
TEAE: Myalgia (all doses (n=58), grade ≥3): 0 Number (%) of patients
TEAE: Nail changes (all doses (n=58), grade ≥3): 0 Number (%) of patients
TEAE: Nausea (all doses (n=58), grade ≥3): 0 Number (%) of patients
TEAE: Stomatitis (all doses (n=58), grade ≥3): 2 (3) Number (%) of patients
TEAE: Vomiting (all doses (n=58), grade ≥3): 0 Number (%) of patients
Patients in whom adverse events required dose modifications (all doses, n=58): 52%
Patients requiring dose modifications due to AEs (all doses, n=58): 30 (52%) patients (%)
Patients with dose modifications due to asymptomatic hyperphosphatemia (all doses, n=58): 22%
Patients reporting blurred vision (at 30–150 mg, mainly grade 1): 6 patients
Recommended phase 2 dose (RP2D) (dose reduction to 60 mg/day in case of intolerable toxicity): 80 mg/daily
Maximum tolerated dose (doses up to 150 mg/day once daily, 3+3+3 design): not formally reached
Patients with DLTs (first 4 weeks, at three dose levels, 58 treated at 10 to 150 mg/day): Five
Number of DLTs (first 4 weeks, dry mouth/eyes, hyperamylasemia, hypercalcemia, hyperbilirubinemia, hyperphosphatemia, stomatitis): 6 DLTs
SAEs deemed possibly study drug related (DLTs) (hyperamylasemia (80 mg), stomatitis (110 mg)): two
Maximum severity of dermatological toxicity / nail changes (in vivo): ≤ 2 grade
Patients with QTc prolongations of grade 1 or 2 (in vivo): Three
Patients with nail changes requiring dose adjustment (in vivo): 3 patients
Drug-related deaths (n=58): no death was considered drug-related
Number of SAEs (n=58): 39 SAEs
Patients experiencing SAEs (n=58): 20 patients
Patients who died from disease progression (n=58): 21 patients
Patients with highest TEAE severity grade 1 (n=58): 4 (7%) patients (%)
Patients with highest TEAE severity grade 2 (n=58): 17 (29%) patients (%)
Patients with highest TEAE severity grade 3 (n=58): 28 (48%) patients (%)
Patients with highest TEAE severity grade 4 (n=58): 2 (3%) patients (%)
Patients with highest TEAE severity grade 5 (n=58): 7 (12%) patients (%)
Dose up to which tolerability was acceptable (oral once daily): up to 80 mg/day
Lowest dose at which serum phosphate increases occurred (typically between 1st and 3rd week of dosing): 20 mg
Dose reduction required (up to 40 mg): no dose reduction was required
